Reference: US4477456A (priority 1982, dated 1984)

Columns and labels:
[1] = system: characteristic stretching or writhing syndrome induced by phenylquinone; assay: animal or person; format: in vivo, female white mice; conditions: for ED50: Mus musculus, po, 0.5 h, read-out: Effect ED50, Oral PQW
[2] = system: anorexigenic effect (milk spots consumed); assay: animal or person; format: in vivo, Female CF1 mice; conditions: Mus musculus, po, read-out: Anorexigenic Effect, Effective Dose
[3] = system: Straub tail induced by morphine; assay: narcotic antagonist test: prevention of Straub tail induced by morphine sulfate; format: in vivo, Female CF1 S mice; conditions: for ED50: Mus musculus, sc, subcutaneous, challenge 30 mg/kg morphine sulfate i.p., read-out: Effect ED50, Subcutaneous Anti-Straub Tail
[4] = system: Straub tail induced by morphine; conditions: known narcotic antagonists, Blumberg et al.; cited from earlier work

SMILES	ED50 [1]	analgesic potency compared with morphine ([1]; mouse, in vivo)	minimal effective dose [2]	ED50 [3]	narcotic antagonism capability / antagonist character ([3]; Straub tail antagonism, in words)	prevention of the induction of Straub tail by morphine [4]
OCC1CC2CCC13CN(CC1CC1)CCC31c3cccc(O)c3OC21 (single isomer, unassigned) [Example 9, 3-cyclopropylmethyl-5-hydroxymethyl-1,2,3,4,5,6,7,7a-octahydro-4a,7-ethanobenzofuro[3,2-e]isoquinolin-9-ol]	0.28 mg/kg	several times greater potency than morphine	–	–	–	–
CC(C)(C)C(C)(O)C1CC2CCC13CN(CC1CC1)CCC31c3cccc(O)c3OC21 (single isomer, unassigned) [Example 11, 3-Cyclopropylmethyl-5-(2-hydroxy-3,3-dimethyl-2-butyl)-1,2,3,4,5,6,7,7a-octahydro-4a,7-ethanobenzofuro[3,2-e]isoquinolin-9-ol]	5.2 mg/kg	–	–	–	–	–
COc1cccc2c1OC1C3CCC4(CC3)CN(C)CCC214 (stereo not shown) [Example 1, 9-methoxy-3-methyl-1,2,3,4,5,6,7,7a-octahydro-4a,7-ethanobenzofuro[3,2-e]isoquinoline]	20.5 mg/kg	–	20 mg/kg	> 18 mg/kg	–	–
CN1CCC23c4cccc(O)c4OC2C2CCC3(CC2)C1 (stereo not shown) [Example 2, 3-methyl-1,2,3,4,5,6,7,7a-octahydro-4a,7-ethanobenzofuro[3,2-e]isoquinolin-9-ol]	12 mg/kg	–	> 324 mg/kg	0.05 mg/kg	–	–
CCCN1CCC23c4cccc(OC)c4OC2C2CCC3(CC2)C1 (stereo not shown) [Example 3, 9-Methoxy-3-propyl-1,2,3,4,5,6,7,7a-octahydro-4a,7-ethanobenzofuro[3,2-e]isoquinoline]	> 135 mg/kg	–	–	0.19 mg/kg	–	–
CCCN1CCC23c4cccc(O)c4OC2C2CCC3(CC2)C1.Cl (stereo not shown) [Example 4, 3-propyl-1,2,3,4,5,6,7,7a-octahydro-4a,7-ethanobenzofuro[3,2-e]isoquinolin-9-ol hydrochloride]	99 mg/kg	–	7 mg/kg	0.009 mg/kg	pure narcotic antagonists	–
Oc1cccc2c1OC1C3CCC4(CC3)CN(CC3CC3)CCC214 (stereo not shown) [Example 6, 3-Cyclopropylmethyl-1,2,3,4,5,6,7,7a-octahydro-4a,7-ethanobenzofuro[3,2-e]isoquinolin-9-ol]	4.4 mg/kg	–	46 mg/kg	0.005 mg/kg	–	–
CC(O)C1CC2CCC13CN(CC1CC1)CCC31c3cccc(O)c3OC21 (stereo not shown) [Example 7, 3-Cyclopropylmethyl-5-(1-hydroxyethyl)-1,2,3,4,5,6,7,7a-octahydro-4a,7-ethanobenzofuro[3,2-e]isoquinolin-9-ol]	0.78 mg/kg	–	–	0.08 mg/kg	–	–
CC(O)C1CC2C=CC13CN(CC1CC1)CCC31c3cccc(O)c3OC21 (stereo not shown) [Example 8, 3-Cyclopropylmethyl-5-(1-hydroxyethyl)-1,2,3,4,5,6,7,7a-octahydro-4a,7-ethenobenzofuro[3,2-e]isoquinolin-9-ol]	0.51 mg/kg	–	–	0.024 mg/kg	–	–
CN1CC[C@]23c4c5ccc(O)c4O[C@H]2[C@@H](O)C=C[C@H]3[C@H]1C5 [Morphine, reference compound]	3 mg/kg	–	–	–	–	–
C=CCN1CC[C@]23c4c5ccc(O)c4O[C@H]2[C@@H](O)C=C[C@H]3[C@H]1C5 [Nalorphine]	–	–	–	–	–	prevent the induction of Straub tail in mice
C=CCN1CC[C@]23c4c5ccc(O)c4O[C@H]2C(=O)CC[C@@]3(O)[C@H]1C5 [Naloxone, reference compound]	–	–	4.8 mg/kg	–	–	prevent the induction of Straub tail in mice
CC(C)=CCN1CCC2(C)c3cc(O)ccc3CC1C2C (stereo not shown) [Pentazocine, reference compound]	56 mg/kg	–	–	4 mg/kg	–	–
